Measurements reported in patent publication US10898548B2, “Modulators of protein tyrosine phosphatase and uses thereof” (LEUVAS THERAPEUTICS, priority 2015, dated 2021).

Key:
U251 GBM cells = experiment: VYBRANT DyeCycle Violet early apoptosis, U251 GBM cells; type: cell-based
Method: (§1) Cell viability and survival was measured using the MTT assay, a colorimetric assay for assessing cell metabolic activity set up under conditions where the absorption reflects the number of viable cells present (Table 21 and 22) and expressed as relative absorption at 570 nm. Early apoptosis was measured using VYBRANT DyeCycle Violet stain (Molecular Probes), a DNA-selective, cell membrane-permeant dye that can distinguish the compacted state of the nuclear chromatin in apoptotic cells as determined by flow cytometry and presented as the percent of cells that are apoptotic (Table 23 and 24). The actual number of cells following treatment with TAT-ICD or TAT alone (Table 25) was determined using flow cytometry compared to an input of 5,000 cells at time zero. To confirm apoptosis the TUNEL labeling assay, which detects DNA strand breaks in apoptotic cells by fluorescence microscopy, was also used to examine U251 cells treated with the PTPRG WD. Briefly, the assay used an optimized terminal transferase ([…]) to label 3′OH ends in genomic DNA with TMR-dUTP, thus allowing the measurement and quantification of cell death by apoptosis. U251 cells were pretreated for 1, 3 and 6 hours with 50 μM P1-WD. Then cells were fixed and permeabilized, incubated with TUNEL reaction mixture for 1 h at RT, and then stained with DAPI (for nuclei detection) and with Alexa670-Phalloidin (to detect actin in cell membranes). After the staining steps, cells were visualized with a confocal microscope.

T98G GBM cells = experiment: MTT survival assay, T98G GBM cells; type: cell-based, human
Method: (§2) The DBTRG-O5MG (Denver Brain Tumor Research Group 05) cell line was established from tissue from a patient with glioblastoma multiforme who had been treated with local brain irradiation and multi drug chemotherapy (Kruse C A, et al. 1992 In vitro Cell Dev Biol, 28A(9-10):609-14). U87 is a commonly studied and thoroughly characterized grade IV glioma cell line derived from malignant glioma (Clark M J, et al, 2010 Plos Genet. 6(1):e1000832.). T98G is a glioblastoma multiforme cell line extracted from a person (Stein G H, 1979, J. Cell Physiol, 99(1):43-54). Proliferation and survival were assessed following TAT-ICD or control peptide (Table 29) or the P1-WD or control peptide treatment using the MTT assay as described above. Data are relative absorption; mean and standard deviation.

U251 cells = experiment: TUNEL labeling assay, U251 cells; type: cell-based; details: 50 μM P1-WD
Method: as §1, with “Briefly, U251 GBM cells, normal primary cortical murine neurons and a mixed culture of murine microglia and astrocytes were treated for 24, 48 and 72 hours with no treatment (control), delivery peptide (P1 or TAT) or increasing concentrations of P1-WD or TAT-ICD. Cell” for “Cell”
This finding was validated using the TUNEL in situ apoptosis cell death detection staining.

DBTRG GBM cells [1] = experiment: MTT survival assay, DBTRG GBM cells; type: cell-based, human
Method: as §2

[2] = system: normal primary cortical murine neurons; experiment: MTT assay, normal primary cortical neurons; type: cell-based, mouse
Method: as §1, with “Briefly, U251 GBM cells, normal primary cortical murine neurons and a mixed culture of murine microglia and astrocytes were treated for 24, 48 and 72 hours with no treatment (control), delivery peptide (P1 or TAT) or increasing concentrations of P1-WD or TAT-ICD. Cell” for “Cell”
In striking contrast, treatment of normal primary cortical neurons isolated from mouse pups treated with TAT alone or TAT-ICD for 24-72 hours (Table 26) are mean and sd of absorption using the MTT assay as described above.

U87 GBM cells [3] = experiment: VYBRANT apoptosis, U87 GBM cells; type: cell-based; details: 0.5 μM
bEnd3 endothelial cells = experiment: MTT assay, bEnd3 endothelial cells; type: cell-based
U87 GBM cells [4] = experiment: MTT survival assay, U87 GBM cells; type: cell-based
Method: as §2

DBTRG GBM cells [5] = experiment: VYBRANT early apoptosis, DBTRG GBM cells; type: cell-based, human; details: 0.5 μM
[6] = P1 or P1-WD 50 μM, 6 h, Control 5
[7] = P1 or P1-WD 50 μM, 9 h, Control 12
[8] = P1 or P1-WD 50 μM, 24 h, Control 8
[9] = P1 or P1-WD 50 μM, 24 hours, Control 971
[10] = P1 or P1-WD 50 μM, 48 hours, Control 1305
[11] = P1 or P1-WD 50 μM, 72 hours, Control 1481

P1-WD: fusion Trojan peptide SEQ ID 3: Penetratin, glycine, PTPRG wedge domain aa 831-856; RQIKIWFQNRRMKWKKGKQFVKHIGELYSNNQHGFSEDFEEVQ (listed as Homo sapiens)
percent of apoptotic cells (early apoptosis) (U251 GBM cells; P1-WD 10 μM, 6 h, Control 5): 13%
percent of apoptotic cells (early apoptosis) (U251 GBM cells; P1-WD 10 μM, 9 h, Control 12): 21%
percent of apoptotic cells (early apoptosis) (U251 GBM cells; P1-WD 10 μM, 24 h, Control 8): 25%
percent of apoptotic cells (early apoptosis) (U251 GBM cells; P1-WD 25 μM, 6 h, Control 5): 21%
percent of apoptotic cells (early apoptosis) (U251 GBM cells; P1-WD 25 μM, 9 h, Control 12): 30%
percent of apoptotic cells (early apoptosis) (U251 GBM cells; P1-WD 25 μM, 24 h, Control 8): 30%
percent of apoptotic cells (early apoptosis) (U251 GBM cells; [6]): 33%
percent of apoptotic cells (early apoptosis) (U251 GBM cells; [7]): 40%
percent of apoptotic cells (early apoptosis) (U251 GBM cells; [8]): 40%
absorbance in the MTT assay (T98G GBM cells; P1-WD 10 μM, 24 hours, Control 971): 629
absorbance in the MTT assay (T98G GBM cells; P1-WD 10 μM, 48 hours, Control 1305): 854
absorbance in the MTT assay (T98G GBM cells; P1-WD 10 μM, 72 hours, Control 1481): 985
absorbance in the MTT assay (T98G GBM cells; P1-WD 25 μM, 24 hours, Control 971): 555
absorbance in the MTT assay (T98G GBM cells; P1-WD 25 μM, 48 hours, Control 1305): 697
absorbance in the MTT assay (T98G GBM cells; P1-WD 25 μM, 72 hours, Control 1481): 835
absorbance in the MTT assay (T98G GBM cells; [9]): 540
absorbance in the MTT assay (T98G GBM cells; [10]): 744
absorbance in the MTT assay (T98G GBM cells; [11]): 842
DNA fragmentation, TUNEL staining (U251 cells): fragmented DNA as early as 3 hours after initiation of treatment

P1: Penetratin delivery peptide, 16 aa RQIKIWFQNRRMKWKK (SEQ ID 4), control [reference compound]
percent of apoptotic cells (early apoptosis) (U251 GBM cells; [6]): 8%
percent of apoptotic cells (early apoptosis) (U251 GBM cells; [7]): 15%
percent of apoptotic cells (early apoptosis) (U251 GBM cells; [8]): 15%
absorbance in the MTT assay (T98G GBM cells; [9]): 1113
absorbance in the MTT assay (T98G GBM cells; [10]): 1019
absorbance in the MTT assay (T98G GBM cells; [11]): 1111
DNA fragmentation, TUNEL staining (U251 cells): did not show fragmented DNA or cell loss

TAT-ICD: fusion recombinant protein SEQ ID 5: PTPRG intracellular domain aa 797-1445 fused to 13 aa TAT sequence
MTT relative absorption (DBTRG GBM cells [1]; 0.3 μM, 24 hours, Control 941): 772
MTT relative absorption (DBTRG GBM cells [1]; 0.3 μM, 48 hours, Control 1274): 770
MTT relative absorption (DBTRG GBM cells [1]; 0.3 μM, 72 hours, Control 1667): 1243
MTT relative absorption (DBTRG GBM cells [1]; 0.5 μM, 24 hours, Control 941): 773
MTT relative absorption (DBTRG GBM cells [1]; 0.5 μM, 48 hours, Control 1274): 623
MTT relative absorption (DBTRG GBM cells [1]; 0.5 μM, 72 hours, Control 1667): 1022
MTT relative absorption (DBTRG GBM cells [1]; 1.0 μM, 24 hours, Control 941): 669
MTT relative absorption (DBTRG GBM cells [1]; 1.0 μM, 48 hours, Control 1274): 577
MTT relative absorption (DBTRG GBM cells [1]; 1.0 μM, 72 hours, Control 1667): 712
absorbance in the MTT assay ([2]; 0.1 uM, 24 hours, Control 1116): 1115
absorbance in the MTT assay ([2]; 0.1 uM, 48 hours, Control 1022): 989
absorbance in the MTT assay ([2]; 0.1 uM, 72 hours, Control 994): 1074
absorbance in the MTT assay ([2]; 0.25 uM, 24 hours, Control 1116): 928
absorbance in the MTT assay ([2]; 0.25 uM, 48 hours, Control 1022): 923
absorbance in the MTT assay ([2]; 0.25 uM, 72 hours, Control 994): 1204
absorbance in the MTT assay ([2]; 0.5 uM, 24 hours, Control 1116): 1164
absorbance in the MTT assay ([2]; 0.5 uM, 48 hours, Control 1022): 1109
absorbance in the MTT assay ([2]; 0.5 uM, 72 hours, Control 994): 1376
percent of apoptotic cells (U87 GBM cells [3]; 1 hour, Control 10): 67%
percent of apoptotic cells (U87 GBM cells [3]; 3 hours, Control 3): 60%
percent of apoptotic cells (U87 GBM cells [3]; 6 hours, Control 14): 70%
mean absorbance in the MTT assay (bEnd3 endothelial cells; 0.1 uM, 24 hours, CTRL 352): 373
mean absorbance in the MTT assay (bEnd3 endothelial cells; 0.1 uM, 48 hours, CTRL 523): 513
mean absorbance in the MTT assay (bEnd3 endothelial cells; 0.25 uM, 24 hours, CTRL 352): 378
mean absorbance in the MTT assay (bEnd3 endothelial cells; 0.25 uM, 48 hours, CTRL 523): 579
mean absorbance in the MTT assay (bEnd3 endothelial cells; 0.5 uM, 24 hours, CTRL 352): 393
mean absorbance in the MTT assay (bEnd3 endothelial cells; 0.5 uM, 48 hours, CTRL 523): 545
percent of apoptotic cells (early apoptosis) (U251 GBM cells; TAT-ICD 0.5 uM, 6 hr, CTRL 4.6): 2.6%
percent of apoptotic cells (early apoptosis) (U251 GBM cells; TAT-ICD 0.5 uM, 9 hr, CTRL 6.0): 14.0%
percent of apoptotic cells (early apoptosis) (U251 GBM cells; TAT-ICD 0.5 uM, 24 hr, CTRL 7.0): 21.0%
percent of apoptotic cells (early apoptosis) (U251 GBM cells; TAT-ICD 1 uM, 6 hr, CTRL 4.6): 6.0%
percent of apoptotic cells (early apoptosis) (U251 GBM cells; TAT-ICD 1 uM, 9 hr, CTRL 6.0): 17.0%
percent of apoptotic cells (early apoptosis) (U251 GBM cells; TAT-ICD 1 uM, 24 hr, CTRL 7.0): 25.0%
percent of apoptotic cells (early apoptosis) (U251 GBM cells; TAT-ICD 2 uM, 6 hr, CTRL 4.6): 15.0%
percent of apoptotic cells (early apoptosis) (U251 GBM cells; TAT-ICD 2 uM, 9 hr, CTRL 6.0): 25.0%
percent of apoptotic cells (early apoptosis) (U251 GBM cells; TAT-ICD 2 uM, 24 hr, CTRL 7.0): 30.0%
MTT relative absorption (U87 GBM cells [4]; 0.1 μM, 24 hours, CTRL 1200): 1070
MTT relative absorption (U87 GBM cells [4]; 0.1 μM, 48 hours, CTRL 1200): 1167
MTT relative absorption (U87 GBM cells [4]; 0.1 μM, 72 hours, CTRL 1336): 813
MTT relative absorption (U87 GBM cells [4]; 0.25 μM, 24 hours, CTRL 1200): 1069
MTT relative absorption (U87 GBM cells [4]; 0.25 μM, 48 hours, CTRL 1200): 1062
MTT relative absorption (U87 GBM cells [4]; 0.25 μM, 72 hours, CTRL 1336): 650
MTT relative absorption (U87 GBM cells [4]; 0.5 μM, 24 hours, CTRL 1200): 1000
MTT relative absorption (U87 GBM cells [4]; 0.5 μM, 48 hours, CTRL 1200): 977
MTT relative absorption (U87 GBM cells [4]; 0.5 μM, 72 hours, CTRL 1336): 650
absorbance in the MTT assay (T98G GBM cells; TAT-ICD 0.5 μM, 24 hours, CTRL 971): 921
absorbance in the MTT assay (T98G GBM cells; TAT-ICD 0.5 μM, 48 hours, CTRL 1305): 1301
absorbance in the MTT assay (T98G GBM cells; TAT-ICD 0.5 μM, 72 hours, CTRL 1481): 1061
absorbance in the MTT assay (T98G GBM cells; TAT-ICD 1 μM, 24 hours, CTRL 971): 745
absorbance in the MTT assay (T98G GBM cells; TAT-ICD 1 μM, 48 hours, CTRL 1305): 947
absorbance in the MTT assay (T98G GBM cells; TAT-ICD 1 μM, 72 hours, CTRL 1481): 935
absorbance in the MTT assay (T98G GBM cells; TAT-ICD 2 μM, 24 hours, CTRL 971): 552
absorbance in the MTT assay (T98G GBM cells; TAT-ICD 2 μM, 48 hours, CTRL 1305): 687
absorbance in the MTT assay (T98G GBM cells; TAT-ICD 2 μM, 72 hours, CTRL 1481): 625
percent of apoptotic cells by flow cytometry (DBTRG GBM cells [5]; 1 h, Control 14): 25%
percent of apoptotic cells by flow cytometry (DBTRG GBM cells [5]; 3 h, Control 16): 40%
percent of apoptotic cells by flow cytometry (DBTRG GBM cells [5]; 6 h, Control 33): 70%
